Assay results as given in patent US6573252B1, “Medicine nitrate salts” (priority 1998, dated 2003).
Where a name gives a salt, the structure may show the parent alone.

Legend:
myeloperoxydase (MPO) = assay: Myeloperoxydase activity in intestinal tissue, acute colitis model (2,4,6-trinitrobenzensulphonic acid); assay type: in vivo; settings: for Myeloperoxydase activity (unit/mg tissue): rectal route, amount corresponding to 100 mg/kg of 5-ASA, 6 administrations, intestinal tissue (wet)
Procedure: Myeloperoxydase Activity of the 5-Aminosalicylic Acid (4-nitroxy)butyl Ester Compared with that of the Corresponding Hydrochloride and Nitrate Salts, in an Acute Colitis Model
4 groups of 6 animals each have been formed. The groups were treated, respectively, with the carrier (carboxymethylcellulose aqueous solution 1%), 100 mg/Kg of 5-ASA, a 5-ASA-NO2.HCl amount corresponding to 100 mg/kg of 5-ASA, an amount of 5-ASA-NO2.HNO3 correspsonding to 100 mg/kg of 5-ASA.
The animals were treated by rectal route with the above compounds at zero time. After one hour the animals were treated with 0.5 ml of a 60 mg/ml solution of 2,4,6,trinitro-benzensulphonic acid in ethyl alcohol 50%. After two hours the animals were treated again by rectal route with the same compounds and at 12 hour intervals up to a total of 6 administrations.
The tissular levels of the myeloperoxydase (MPO) enzym have been measured which is an inflammatory process marker in various tissues, among which the bony-articular one (C. Rathakrishnan et Al., “Release of oxygen radicals by articular chondrocytes: A study of luminol-dependent chemiluminescence and hydrogen peroxide secretion” J. Bone Miner. Res. 7/10 1139-1148 1992).
The myeloperoxydase activity was measured by using a modified version of the experimental model described by Bradley et al. J. Invest. Dermatol. 78, 206-209, 1982. Samples of intestinal tissue were drawn from each animal, which were suspended in 0.1% of hexadecyltrimethylammonium bromide (50 mg/ml) at a pH 6 and homogenized for 15 seconds (Polytron® PT-7 generator). The samples were frozen and then defrosted three times subsequently before being centrifuged (9,000 g) for 2 minutes in an Eppendorf® Benchtop centrifuge. The myeloperoxydase activity was measured by adding 7 μl of the surnatant to 200 μl of o-dianisidine (Sigma) reactant and measuring the optical density variation at 450 nm in a two minute time in a Microtitre Multiscan®. The reactant contained 0.0005% of hydrogen peroxide as substratum for the myeloperoxydase enzym. One unity of the myeloperoxydase activity was defined as the one capable to convert an hydrogen proxide micromole to water in one minute at 22° C. The results are reported in Table II and are expressed as unit number of the myeloperoxydase activity/tissue mg (wet).

[1] = Gastric toxicity (gastric lesion incidence) after oral administration in fasted rats; assay type: in vivo; settings: for Gastric damage (% incidence): rat, in vivo, po, 100 mg/kg
Procedure: Gastric Toxicity of Piroxicam Nitrate Salt (Ex. 1) Compared with Piroxicam
To 3 groups of 10 rats each, kept on empty stomach since 24 hours, orally are administered:
5 ml/Kg of carboxymethylcellulose aqueous suspension 2%.
an amount of nitrate Piroxicam corresponding to 100 mg/kg of Piroxicam in 5 ml/kg of carboxymethylcellulose aqueous suspension 2%.
an amount of hydrocloride Piroxicam corresponding to 100 mg/kg of Piroxicam in 5 ml/kg of carboxymethylcellulose aqueous suspension 2%.
Six hours later the animals are sacrificed and the gastric lesion incidence is evaluated.

[2] = Gastric damage induced by Aspirin, Alendronate compared with Alendronate nitrate salt; settings: rats, after Aspirin 125 mg/Kg, Alendronate dose 80 mg/Kg p.o.
Procedure: Prevention of the Gastric Damage Induced by Aspirin by Administering Alendronate in Comparison with Alendronate Nitrate Salt
Three groups of 5 rats each were treated by oral route with gastric probe as indicated hereinafter:
I group: treated with Alendronate (Alen.) at the dose of 80 mg/Kg.
II group: 1 h before the Alendronate 80 mg/Kg dose, ASpirin (Asp.) was supplied per os at the dose of 125 mg/Kg.
III group: 1 h before the Alendronate nitrate, (Alen.HNO3) corresponding to the Alendronate 80 mg/Kg dose, Aspirin was supplied per os at the dose of 125 mg/Kg.
The evaluation of the gastric damage was carried out sacrificing the animals three hours after the treatment with Alendronate or Alendronate nitrate.

[3] = Acute toxicity, single oral dose in rats; assay type: in vivo; settings: single dose 100 mg/kg orally in carboxymethylcellulose aqueous suspension 2% w/v, observation for 14 days
Procedure: To a group of 10 rats weighing […] a single dose equal to 100 mg/kg of Piroxicam nitrate salt (Example 1), has been administered by cannula orally in a carboxymethylcellulose aqueous suspension 2% w/v.
The animals are kept under obsevation for 14 days.

## Nc1ccc(O)c(C(=O)OCCCCO[N+](=O)[O-])c1.O=[N+]([O-])O [5-ASA-NO2.HNO3, Nitrate Salt of the 5-amino-2-hydroxybenzoic Acid (4-nitroxy)butyl Ester]
Myeloperoxydase (MPO); acute colitis model, compared with the other groups
  myeloperoxydase activity (comparison in words): lower than that of the other groups
Myeloperoxydase (MPO); pharmacological model indicated in the examples
  pharmacological activity compared with the unsalified compound: more active than the unsalified compound
Myeloperoxydase (MPO)
  Myeloperoxydase activity (unit/mg tissue): 35 ± 13 unit/mg tissue

## CN1C(C(=O)Nc2ccccn2)=C(O)c2ccccc2S1(=O)=O [Piroxicam.HCl, Piroxicam hydrochloride, reference compound]
[1]; 6 h
  Gastric damage (% incidence): 100%

## Alendronate Nitrate Salt [Alen.HNO3]
[2]
  reduction of the level of the gastric damage in comparison with Alendronate: 4 to 5 times

## Piroxicam Nitrate Salt [Piroxicam.HNO3]
[3]
  toxic symptom presence: In no one of the animals of the group the toxic symptom presence was noticed
[1]
  Gastric damage (% incidence): 20%
[1]; rats, 100 mg/kg p.o., compared with Piroxicam hydrochloride
  gastric tolerability (comparison in words): improved gastric tolerability compared with Piroxicam hydrochloride

## Cl.Nc1ccc(O)c(C(=O)OCCCCO[N+](=O)[O-])c1 [5-ASA-NO2.HCl, Hydrochloride Salt of the 5-Aminosalicylic Acid (4-nitroxy)-butyl Ester, reference compound]
Myeloperoxydase (MPO)
  Myeloperoxydase activity (unit/mg tissue): 111 ± 20 unit/mg tissue

## Nc1ccc(O)c(C(=O)O)c1 [Example 5-ASA, 5-aminosalicylic acid, reference compound]
Myeloperoxydase (MPO)
  Myeloperoxydase activity (unit/mg tissue): 72 ± 15 unit/mg tissue
